Reference: US20260199324A1, “METHOD OF TREATING BREAST CANCER” (Arvinas Operations, Inc., priority 2022, published 2026)
Where a name gives a salt, the structure may show the parent alone.

Assays:
P-gp = molecular target: T1, P-gp (Homo sapiens, UniProt P08183); experiment: Phase 1 open-label fixed-sequence 2-period drug-drug interaction study: effect of single oral dose of Compound A on PK of dabigatran (P-gp probe substrate); type: in vivo; details: co-administration of Compound A with dabigatran in healthy participants
T1 construct: from tissue; host or cells: intestine of healthy human participants (in vivo)
T1 sequence (P08183 whole entry): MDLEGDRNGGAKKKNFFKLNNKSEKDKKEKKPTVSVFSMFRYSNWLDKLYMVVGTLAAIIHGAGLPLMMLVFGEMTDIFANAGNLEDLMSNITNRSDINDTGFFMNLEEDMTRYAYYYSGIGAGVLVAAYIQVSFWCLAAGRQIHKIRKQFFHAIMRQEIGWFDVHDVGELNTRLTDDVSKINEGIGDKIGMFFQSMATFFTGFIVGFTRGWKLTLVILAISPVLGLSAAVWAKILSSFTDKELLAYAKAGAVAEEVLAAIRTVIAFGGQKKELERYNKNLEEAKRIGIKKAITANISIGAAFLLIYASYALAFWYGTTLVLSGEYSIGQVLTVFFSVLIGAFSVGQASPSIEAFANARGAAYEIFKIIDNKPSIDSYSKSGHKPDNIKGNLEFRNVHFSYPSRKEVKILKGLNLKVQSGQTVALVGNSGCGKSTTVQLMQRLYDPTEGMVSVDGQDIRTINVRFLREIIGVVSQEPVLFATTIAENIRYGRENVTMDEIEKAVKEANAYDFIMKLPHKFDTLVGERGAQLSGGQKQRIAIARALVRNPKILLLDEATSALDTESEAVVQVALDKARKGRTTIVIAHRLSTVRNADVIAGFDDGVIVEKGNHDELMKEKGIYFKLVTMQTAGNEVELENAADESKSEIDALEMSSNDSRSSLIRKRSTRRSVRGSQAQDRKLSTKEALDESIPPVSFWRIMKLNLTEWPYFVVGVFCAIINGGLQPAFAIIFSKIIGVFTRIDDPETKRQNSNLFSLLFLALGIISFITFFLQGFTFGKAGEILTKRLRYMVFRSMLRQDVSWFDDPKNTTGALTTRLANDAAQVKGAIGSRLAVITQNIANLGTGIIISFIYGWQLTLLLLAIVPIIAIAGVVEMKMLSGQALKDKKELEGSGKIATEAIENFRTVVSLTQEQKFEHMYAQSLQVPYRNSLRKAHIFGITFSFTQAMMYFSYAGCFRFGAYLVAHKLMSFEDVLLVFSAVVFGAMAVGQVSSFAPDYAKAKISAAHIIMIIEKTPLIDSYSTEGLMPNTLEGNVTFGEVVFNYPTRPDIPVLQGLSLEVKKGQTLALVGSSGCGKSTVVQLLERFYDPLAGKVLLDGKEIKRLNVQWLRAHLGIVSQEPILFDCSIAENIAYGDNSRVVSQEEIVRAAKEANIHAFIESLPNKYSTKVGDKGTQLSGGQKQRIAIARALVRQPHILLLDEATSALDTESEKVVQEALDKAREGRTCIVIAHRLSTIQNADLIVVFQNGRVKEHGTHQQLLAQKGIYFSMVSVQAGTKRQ
Source text: Compound A was investigated in an interventional, Phase 1, open-label, fixed sequence, 2-period study to evaluate the effect of a single oral dose of Compound A on the PK of dabigatran in healthy participants.
The objective of this drug-drug interaction study was to evaluate the impact of Compound A on the PK of dabigatran etexilate (a model substrate for P-gp) in healthy adults (NCT05673889)
All participants in this study received one dose of dabigatran etexilate mesylate alone by mouth in Period 1. In Period 2, everyone received one dose of dabigatran etexilate mesylate by mouth approximately 90 mins after receiving one dose of Compound A by mouth. The levels of dabigatran in Period I were compared to the levels of dabigatran in Period 2. This study design was used to determine if and how Compound A affects dabigatran absorption into the body in healthy adults.
This was a Phase 1, open-label, 2-period, fixed-sequence study to estimate the effect of a single oral dose of Compound A on the PK of a P-gp substrate, dabigatran etexilate (as mesylate), in healthy male participants and female participants with nonchildbearing potential. […]
Natural log transformed parameters (AUCinf [if data permitted], AUClast, and Cmax) of total dabigatran were analyzed using a mixed effect model with treatment as a fixed effect and participant as a random effect. […]

[1] = Safety and tolerability (TEAEs, clinical laboratory tests, vital signs, ECGs) in the Phase 1 drug-drug interaction study; type: in vivo, human; details: for number of all-causality adverse events (AEs): 24 participants
Source text: This was a Phase 1, open-label, 2-period, fixed-sequence study to estimate the effect of a single oral dose of Compound A on the PK of a P-gp substrate, dabigatran etexilate (as mesylate), in healthy male participants and female participants with nonchildbearing potential.
On Period 1 Day 1, a standard breakfast (approximately 700 calories with a fat content of approximately 35%) was provided prior to dosing. The standard breakfast was required to be completely consumed within an approximately 20-minute period. A single dose of 75 mg dabigatran etexilate (as mesylate) (as 1 capsule of 75 mg) was administered approximately 2 hrs (120 mins) after starting the standard breakfast. To adequately remove any drug effects of dabigatran, a minimum washout period of 4 days was required after dabigatran etexilate (as mesylate) administration on Period 1 Day 1. Serial PK samples were collected up to 48 hrs after single dose administration to determine dabigatran PK parameters (total).
On Period 2 Day 1, a standard breakfast (approximately 700 calories with a fat content of approximately 35%) was provided prior to Compound A and dabigatran etexilate (as mesylate) dosing. The standard breakfast was required to be the same as provided in Period 1 Day 1 and was required to be completely consumed within an approximately 20-minute period. A single dose of 200 mg Compound A (as 2 tablets of 100 mg) was administered approximately 10 mins after the completion of the breakfast. A single dose of 75 mg dabigatran etexilate
(as mesylate) (as 1 capsule of 75 mg) was administered approximately 1.5 hour (90 mins) after the start of Compound A dosing, which was approximately 2 hrs (120 mins) after the start of the breakfast. Serial PK samples were collected up to 48 hrs post dabigatran etexilate (as mesylate) dosing to determine the single dose PK parameters of Compound A and dabigatran (total) • Masking: No masking (open label) • Enrollment number: 24
Compound A co-administered with dabigatran etexilate mesylate was the test treatment. All safety analyses were performed on the safety analysis set. Safety data were presented in tabular and/or graphical format and summarized descriptively, where appropriate in accordance with the Clinical Data Interchange Standards Consortium Standards […].

[2] = Biopharmaceutics Classification System class; type: physicochemical; details: low solubility/low permeability
[3] = Preclinical exposure of epimer Compound B compared to Compound A; type: in vivo; details: preclinical data; Compound B formed by interconversion (epimer) of Compound A
ER = molecular target: T2, ER (Homo sapiens, UniProt P03372); experiment: ER degradation; type: cell-based
T2 sequence (P03372 1-595): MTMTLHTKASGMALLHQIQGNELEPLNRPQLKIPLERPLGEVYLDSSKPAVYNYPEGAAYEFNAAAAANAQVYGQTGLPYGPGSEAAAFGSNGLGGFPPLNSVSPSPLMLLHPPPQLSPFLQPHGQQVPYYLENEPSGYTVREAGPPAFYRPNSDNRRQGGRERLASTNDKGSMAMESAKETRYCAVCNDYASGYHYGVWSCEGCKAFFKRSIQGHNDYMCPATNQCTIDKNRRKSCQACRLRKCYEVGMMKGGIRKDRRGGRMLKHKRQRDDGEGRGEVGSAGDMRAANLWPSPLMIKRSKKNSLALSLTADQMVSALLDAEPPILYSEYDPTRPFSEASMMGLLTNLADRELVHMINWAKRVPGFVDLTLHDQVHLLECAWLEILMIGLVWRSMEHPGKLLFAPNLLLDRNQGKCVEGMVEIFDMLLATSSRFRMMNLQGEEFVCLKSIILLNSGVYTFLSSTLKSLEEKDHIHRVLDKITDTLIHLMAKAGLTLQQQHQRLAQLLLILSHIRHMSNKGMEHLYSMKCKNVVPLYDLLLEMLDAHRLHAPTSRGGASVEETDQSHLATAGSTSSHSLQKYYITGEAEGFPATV

[4] = tested on: ER-dependent transcription; experiment: Antagonism of ER-dependent transcription; type: cell-based
[5] = Compound A 200 mg and dabigatran etexilate mesylate 75 mg, not considered treatment related
[6] = single dose Compound A 200 mg and dabigatran etexilate mesylate 75 mg
[7] = single dose Compound A 200 mg and dabigatran etexilate mesylate 75 mg (Treatment Period 2)
[8] = dabigatran etexilate mesylate 75 mg alone
[9] = dabigatran etexilate mesylate 75 mg alone, considered treatment related
[10] = dabigatran etexilate mesylate 75 mg alone, not considered treatment related
[11] = single dose dabigatran etexilate mesylate 75 mg (Treatment Period 1)

In the case of `O=C1CC[C@H](N2Cc3cc(N4CCN(CC5CCN(c6ccc([C@@H]7c8ccc(O)cc8CC[C@@H]7c7ccccc7)cc6)CC5)CC4)ccc3C2=O)C(=O)N1` [Compound A, (S)-3-(5-(4-((1-(4-((1R,2S)-6-hydroxy-2-phenyl-1,2,3,4-tetrahydronaphthalen-1-yl)phenyl)piperidin-4-yl)methyl)piperazin-1-yl)-1-oxoisoindolin-2-yl) piperidine-2,6-dione], the “P-gp inhibition (conclusion from increased dabigatran exposure)” value (P-gp) is reported as “P-gp inhibitor”, the “participants with moderate AE of contusion” value ([1]; Compound A 200 mg and dabigatran etexilate mesylate 75 mg) is reported as 1 (4.2%) participants (%) and the “participants with moderate AE of headache” value ([1]; Compound A 200 mg and dabigatran etexilate mesylate 75 mg, considered treatment related) is reported as 1 (4.2%) participants (%). The “participants with mild AE of contusion” value [1, 5] was 1 (4.2%) participants (%), the “participants with mild AE of oropharyngeal pain” value [1, 5] was 1 (4.2%) participants (%) and the “participants with mild AE of rhinorrhea” value [1, 5] was 1 (4.2%) participants (%). The “participants with mild AE of wound” value [1, 5] was 1 (4.2%) participants (%), the “participants with Leukocyte Esterase ≥1” value [1, 6] was 1 (4.2%) participants (%) and the “participants with Monocytes/Leukocytes >1.2×ULN” value [1, 6] was 2 (8.3%) participants (%). For the same compound, the “number of AEs considered treatment related” value [1, 7] was 1, the “participants with all-causality AEs (TEAEs)” value (“participants … (TEAEs)” for short) [1, 7] was 6 (25.0%) participants (%) and the “number of all-causality adverse events (AEs)” value [1, 7] was 7. The “participants with treatment related AEs” value ([1]; single dose Compound A 200 mg and dabigatran etexilate mesylate 75 mg (Treatment Period 2), headache) was 1 (4.2%) participants (%) and the “Biopharmaceutics Classification System class” value [2] was “Class IV”.

For `O=C1CC[C@@H](N2Cc3cc(N4CCN(CC5CCN(c6ccc([C@@H]7c8ccc(O)cc8CC[C@@H]7c7ccccc7)cc6)CC5)CC4)ccc3C2=O)C(=O)N1` [Compound B], the “exposure of Compound B compared to Compound A” value [3] was under 26%, the “degradation of the ER” value (ER) was “does not degrade the ER” and the “antagonism of ER-dependent transcription compared to Compound A” value [4] was “similar”.

For `CCCCCCOC(=O)NC(=N)c1ccc(NCc2nc3cc(C(=O)N(CCC(=O)OCC)c4ccccn4)ccc3n2C)cc1` [dabigatran etexilate mesylate, β-Alanine, N-[[2-[[[4-[[[(hexyloxy)carbonyl]amino]iminomethyl]phenyl]amino]methyl]-1-methyl-1H-benzimidazol-5-yl]carbonyl]-N-2-pyridinyl-, ethyl ester], the “participants with mild AE of dry throat” value [1, 8] was 1 (4.2%) participants (%), the “participants with mild AE of lip dry” value [1, 8] was 1 (4.2%) participants (%) and the “participants with mild AE of diarrhea” value [1, 9] was 1 (4.2%) participants (%). The “participants with mild AE of dry skin” value [1, 9] was 1 (4.2%) participants (%), the “participants with mild AE of hot flush” value [1, 9] was 1 (4.2%) participants (%) and the “participants with mild AE of nausea” value [1, 9] was 1 (4.2%) participants (%). For the same compound, the “participants with moderate AE of hematoma” value [1, 10] was 2 (8.3%) participants (%), the “participants with moderate AE of myalgia” value [1, 10] was 1 (4.2%) participants (%) and the “participants with Monocytes/Leukocytes >1.2× upper limit of normal (ULN)” value ([1]; single dose dabigatran etexilate mesylate 75 mg) was 2 (8.3%) participants (%). For the same compound, the “number of AEs considered treatment related” value [1, 11] was 4, the “participants … (TEAEs)” value [1, 11] was 6 (25.0%) participants (%) and the “participants with treatment related AEs” value [1, 11] was 3 (12.5%) participants (%). For the same compound, the “number of all-causality adverse events (AEs)” value [1, 11] was 9.

For `[H]/N=C(/N)c1ccc(NCc2nc3cc(C(=O)N(CCC(=O)O)c4ccccn4)ccc3n2C)cc1` [dabigatran, 3-[[2-[(4-carbamimidoylanilino)methyl]-1-methylbenzimidazole-5-carbonyl]-pyridin-2-ylamino]propanoic acid], the “participants … (TEAEs)” value [1, 11] was 6 (25.0%) participants (%) and the “participants with treatment related AEs” value [1, 11] was 3 (12.5%) participants (%).
